Laboratory results from patent US20250026741A1, “INHIBITORS OF THE ONCOGENIC SHP2 PHOSPHATASE AND USES THEREOF” (Sanford Burnham Prebys Medical Discovery Institute, priority 2021, published 2025).

Legend:
SHP2-E76K [1] = biological target: T1, SHP2-E76K (Homo sapiens (Human), UniProt Q06124, E76K); assay: Time-dependent inhibition (preincubation) assay; format: biochemical; details: preincubation 1, 5, 10, 20, or 60 min with SHP2-E76K
Experimental: PTPs contain a highly nucleophilic cysteine that is essential for catalytic activity, but is susceptible to oxidation and covalent modifications which abrogate its nucleophilic function and phosphatase activity. Because the methylenebenzothiophenone moiety of our inhibitors could potentially act as a Michael acceptor and thus covalently bind to the catalytic cysteine, we tested whether the observed inhibition of SHP2 was dependent on the preincubation time of inhibitor and enzyme. An irreversible covalent inhibitor may show time-dependent inhibition, with increased potency at longer incubation times. Conversely, the potency of a non-covalent inhibitor is expected to be insensitive to the time it is incubated with the enzyme. To test for time-dependent inhibition, #01 (#01) at 10 different concentrations was preincubated with SHP2-E76K for 1, 5, 10, 20, or 60 min, before the DiFMUP substrate was added to the reaction mixture and initial rates were recorded (FIG. 2C).

SHP2-E76K [2] = biological target: T1, SHP2-E76K; assay: Michaelis-Menten kinetics and mode of inhibition; format: biochemical
Experimental: Using nonlinear regression, initial rates at various inhibitor and substrate concentrations were fitted to the Michaelis-Menten equations for competitive, noncompetitive, uncompetitive, and mixed inhibition. Fitting models were then compared using Akaike's Information Criterion (AIC), and inhibition mode probabilities were calculated from the differences between the corresponding second-order corrected AIC scores.
#02 was tested with SHP2-E76K using a similar assay format as described above. #02 or vehicle (DMSO) were spotted in triplicate into a black Greiner FLUOTRAC™ 200 384-well microplate (#781076, Greiner) using an Echo 555 Liquid Handler (Labcyte, Inc., San Jose, CA). SHP2-E76K working solution was prepared and dispensed as described above and incubated with inhibitor for 20 min at RT. DiFMUP working solutions at 5×final concentration were prepared in 50 mM Bis-Tris pH 6.0, 50 mMNaCl, and 0.01% Tween 20. […] Fluorescence intensity was measured in kinetic mode as described above. The initial rates were determined from the linear progression curves of each SHP2-E76K reaction. […] For a comparison of the fitting results, the second-order corrected Akaike's Information Criterion (AICc) was calculated using equation 1, where N is the number of data points, SS the absolute sum of squares, and K the number of parameters fit by nonlinear regression plus 1.

[3] = tested on: p-ERK1/2 in U-937 AML cells (SHP2 G60R); assay: Phospho-ERK1/2 immunoblot analysis, U-937; format: cell-based; details: U-937, 24 h; #02 1, 3, 10, 30 μM; RMC-4550 1 μM
Description: Oncogenic gain-of-function mutations in SHP2 drive leukemogenesis in a significant number of leukemia patients. However, due to their unique mechanism of action, the existing SHP2 allosteric inhibitors lack activity against the most common SHP2 oncogenic variants. Thus, we tested whether #02 can inhibit the growth of leukemia cells expressing oncogenic SHP2 variants. […] Using the U-937 AML cell line, which harbors a G60R oncogenic mutation in SHP2, we treated cells with either #02 or RMC-4550 at various concentrations, ranging from 0.123 to 30 μM (FIG. 4A). […] We also assessed the effects of #02 and RMC-4550 on ERK1/2 activation in the SHP2 mutant U-937 cell line. Similar to the immunoblot experiments described above, U-937 AML cells were treated with either vehicle control (DMSO), #02 (1, 3, 10, or 30 μM), or with RMC-4550 (1 μM) for 24 h and processed for p-ERK1/2 immunoblot analysis (FIG. 4B).
Total protein extracts were prepared in modified RIPA lysis buffer (25 mM Tris-HCl, pH 7.4, 10% glycerol, 0.2% Triton™ X-100, 150 mM NaCl, 2 mM Na3VO4, 1 mM EDTA) containing a protease inhibitor cocktail (Roche Applied Science, Indianapolis, IN). […] Densitometric quantitation of immunoblots was performed using Image Studio Lite Software. Changes of phosphorylated ERK1/2 to total ERK1/2 rations are expressed as percentage of the vehicle-treated controls. […]

T1 sequence (Q06124 whole entry E76K): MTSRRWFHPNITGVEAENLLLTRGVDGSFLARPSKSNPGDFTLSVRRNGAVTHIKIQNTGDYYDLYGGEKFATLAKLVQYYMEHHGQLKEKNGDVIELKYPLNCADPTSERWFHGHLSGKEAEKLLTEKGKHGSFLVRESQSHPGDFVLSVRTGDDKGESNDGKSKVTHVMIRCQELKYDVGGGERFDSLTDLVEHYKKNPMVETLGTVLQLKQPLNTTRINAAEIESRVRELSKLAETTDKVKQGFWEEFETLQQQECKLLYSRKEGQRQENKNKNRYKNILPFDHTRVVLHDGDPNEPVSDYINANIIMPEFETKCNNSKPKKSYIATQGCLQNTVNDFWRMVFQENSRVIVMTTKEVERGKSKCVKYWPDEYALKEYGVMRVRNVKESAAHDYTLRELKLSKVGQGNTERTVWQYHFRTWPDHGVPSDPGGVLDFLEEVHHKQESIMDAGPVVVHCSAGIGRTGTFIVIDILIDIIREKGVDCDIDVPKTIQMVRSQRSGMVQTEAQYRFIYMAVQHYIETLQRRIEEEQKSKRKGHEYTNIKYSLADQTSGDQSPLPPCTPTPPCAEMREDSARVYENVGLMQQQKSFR

| time dependence of inhibition (SHP2-E76K [1]) | Ki (SHP2-E76K [2]; DiFMUP substrate, read-out: inhibition constant (Ki) for noncompetitive inhibition) | Structure (SMILES) | mode of inhibition (SHP2-E76K [2]; AIC model comparison) | ERK1/2 activation (p-ERK1/2 levels) [3] |
| --- | --- | --- | --- | --- |
| not time-dependent |  | Nc1ccc(NC(=O)c2cc(-c3ccc(/C=C4\Sc5ccccc5C4=O)o3)ccc2O)cc1 [#01, (Z)—N-(4-Aminophenyl)-2-hydroxy-5-(5-((3-oxobenzo[b]thiophen-2(3H)-ylidene)methyl)furan-2-yl)benzamide] |  |  |
|  | 1800 nM | O=C(Nc1ccccc1)c1cc(-c2ccc(/C=C3\Sc4ccccc4C3=O)o2)ccc1O [#02, (Z)-2-hydroxy-5-(5-((3-oxobenzo[b]thiophen-2(3H)-ylidene)methyl)furan-2-yl)-N-phenylbenzamide] | noncompetitive or mixed inhibition mechanism | dose-dependently inhibited ERK1/2 activation |
